Source: PubChem BioAssay AID330 (DTP/NCI, 2004)
Where “and” joins values, the source holds several entries; their conditions need not be identical. Equal values may be shown once. Toxic doses and inconclusive results are not listed. Rule for the calls: active = survival T/C of 150% or more; inactive = T/C below 125% in these data.

System: P388 leukemia ip, CD2F1 mice, survival T/C
Test: NCI In Vivo Anticancer Drug Screen. Data for tumor model P388 Leukemia (intraperitoneal) in CD2F1 (CDF1) mice
Settings: endpoint: median survival time, higher = longer survival
Summary of the method: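 Mice carrying the transplanted tumor received test compound or vehicle. Survival was recorded in each group, and the value is the treated-group measurement divided by that of the vehicle-treated control group.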

[1] = dose: 6.25 mg/kg/injection, schedule: Q01DX009 (ip), vehicle: Klucel (hydroxypropylcellulose) (HPC)
[2] = dose: 12.5 mg/kg/injection, schedule: Q01DX009 (ip), vehicle: Klucel (hydroxypropylcellulose) (HPC)
[3] = dose: 50.0 mg/kg/injection, schedule: Q01DX005 (ip), vehicle: Klucel (hydroxypropylcellulose) (HPC)
[4] = dose: 100.0 mg/kg/injection, schedule: Q01DX005 (ip), vehicle: Klucel (hydroxypropylcellulose) (HPC)
[5] = dose: 100.0 mg/kg/injection, schedule: Q01DX001 (ip), vehicle: saline with Tween-80
[6] = dose: 200.0 mg/kg/injection, schedule: Q01DX001 (ip), vehicle: saline with Tween-80
[7] = dose: 400.0 mg/kg/injection, schedule: Q01DX001 (ip), vehicle: saline with Tween-80
[8] = dose: 50.0 mg/kg/injection, schedule: Q01DX009 (ip), vehicle: saline
[9] = dose: 100.0 mg/kg/injection, schedule: Q01DX009 (ip), vehicle: saline

Measured: T/C

O=[N+]([O-])c1ccc(Sc2ncnc3nc[nH]c23)c2nonc12
inactive: dose: 0.78 mg/kg/injection, schedule: Q01DX009 (ip), vehicle: Klucel (hydroxypropylcellulose) (HPC) 105 % of control | dose: 1.56 mg/kg/injection, schedule: Q01DX009 (ip), vehicle: Klucel (hydroxypropylcellulose) (HPC) 109 % of control and 86 % of control | dose: 3.12 mg/kg/injection, schedule: Q01DX009 (ip), vehicle: Klucel (hydroxypropylcellulose) (HPC) 99 % of control and 104 % of control | [1] 105 % of control and 98 % of control | [2] 113 % of control and 116 % of control and 122 % of control | dose: 25.0 mg/kg/injection, schedule: Q01DX009 (ip), vehicle: Klucel (hydroxypropylcellulose) (HPC) 112 % of control

C[C@]12CC(=O)O[C@@H](C[C@H]1OC(=O)c1ccccc1)[C@@]21CO1
inactive: dose: 1.0 mg/kg/injection, schedule: Q04DX002 (ip), vehicle: distilled water + Tween-80 102 % of control | dose: 2.0 mg/kg/injection, schedule: Q04DX002 (ip), vehicle: distilled water + Tween-80 103 % of control | dose: 4.0 mg/kg/injection, schedule: Q04DX002 (ip), vehicle: distilled water + Tween-80 100 % of control | dose: 8.0 mg/kg/injection, schedule: Q04DX002 (ip), vehicle: distilled water + Tween-80 94 % of control | dose: 16.0 mg/kg/injection, schedule: Q04DX002 (ip), vehicle: distilled water + Tween-80 100 % of control

CC1CCCN2C(=O)CN(N3CCOCC3)CC(=O)N12 (stereo not given)
inactive: dose: 25.0 mg/kg/injection, schedule: Q04DX002 (ip), vehicle: saline with Tween-80 100 % of control | dose: 25.0 mg/kg/injection, schedule: Q04DX002 (ip), vehicle: saline 95 % of control | dose: 50.0 mg/kg/injection, schedule: Q04DX002 (ip), vehicle: saline with Tween-80 94 % of control | dose: 50.0 mg/kg/injection, schedule: Q04DX002 (ip), vehicle: saline 95 % of control | dose: 100.0 mg/kg/injection, schedule: Q04DX002 (ip), vehicle: saline with Tween-80 99 % of control | dose: 100.0 mg/kg/injection, schedule: Q04DX002 (ip), vehicle: saline 102 % of control | dose: 200.0 mg/kg/injection, schedule: Q04DX002 (ip), vehicle: saline with Tween-80 94 % of control | dose: 200.0 mg/kg/injection, schedule: Q04DX002 (ip), vehicle: saline 94 % of control

COc1cc(NCCC2CCCCN2)c2ncccc2c1 (stereo not given)
inactive: dose: 6.25 mg/kg/injection, schedule: Q01DX005 (ip), vehicle: saline 100 % of control | dose: 12.5 mg/kg/injection, schedule: Q01DX005 (ip), vehicle: saline 100 % of control

CCOC(=O)C1C(C)=CC2=Nc3ccccc3NC(=O)C2C1c1ccccc1 (stereo not given)
inactive: dose: 25.0 mg/kg/injection, schedule: Q01DX005 (ip), vehicle: Klucel (hydroxypropylcellulose) (HPC) 104 % of control | [3] 106 % of control

O=c1n(-c2ccccc2)c(=O)n2c(=O)n(-c3ccccc3)c(=O)n12
inactive: dose: 50.0 mg/kg/injection, schedule: Q01DX009 (ip), vehicle: Klucel (hydroxypropylcellulose) (HPC) 105 % of control | dose: 100.0 mg/kg/injection, schedule: Q01DX009 (ip), vehicle: Klucel (hydroxypropylcellulose) (HPC) 93 % of control | dose: 200.0 mg/kg/injection, schedule: Q01DX009 (ip), vehicle: Klucel (hydroxypropylcellulose) (HPC) 89 % of control

Cc1c(Cl)cccc1-n1c(=O)c2[nH]c3ccccc3sc=2c1=O
inactive: dose: 60.0 mg/kg/injection, schedule: Q01DX005 (ip), vehicle: saline with Tween-80 100 % of control | dose: 120.0 mg/kg/injection, schedule: Q01DX005 (ip), vehicle: saline with Tween-80 92 % of control | dose: 240.0 mg/kg/injection, schedule: Q01DX005 (ip), vehicle: saline with Tween-80 97 % of control

O=C1NC(=O)/C(=C2\CCOC2=O)N1
inactive: dose: 50.0 mg/kg/injection, schedule: Q01DX009 (ip), vehicle: saline with Tween-80 100 % of control | dose: 100.0 mg/kg/injection, schedule: Q01DX009 (ip), vehicle: saline with Tween-80 94 % of control | dose: 200.0 mg/kg/injection, schedule: Q01DX009 (ip), vehicle: saline with Tween-80 100 % of control

COC(=O)C[CH2][Sn]([CH3])([CH3])[CH2]CC(=O)OC
inactive: [3] 104 % of control | [4] 100 % of control

Cn1c(=O)ccc2c3ncccc3c(C(F)(F)F)cc21
inactive: [5] 99 % of control | [6] 100 % of control | [7] 101 % of control

COc1cc2ccc(/C=C/C(=O)c3ccc4c(c3)OCO4)cc2cc1OC
inactive: dose: 25.0 mg/kg/injection, schedule: Q01DX009 (ip), vehicle: water 103 % of control | dose: 50.0 mg/kg/injection, schedule: Q01DX009 (ip), vehicle: water 98 % of control | dose: 100.0 mg/kg/injection, schedule: Q01DX009 (ip), vehicle: water 97 % of control | dose: 200.0 mg/kg/injection, schedule: Q01DX009 (ip), vehicle: water 98 % of control | dose: 400.0 mg/kg/injection, schedule: Q01DX009 (ip), vehicle: water 91 % of control

Cn1c2cc(F)ccc2c(=O)c2c(O)cc3c(c21)C=CC(C)(C)O3
inactive: [3] 94 % of control | [4] 92 % of control | dose: 200.0 mg/kg/injection, schedule: Q01DX005 (ip), vehicle: Klucel (hydroxypropylcellulose) (HPC) 94 % of control

CC(C)(C)c1ccc(O)c(CNCc2ccccc2)c1
inactive: dose: 25.0 mg/kg/injection, schedule: Q01DX005 (ip), vehicle: Klucel + Tween-80 99 % of control | dose: 50.0 mg/kg/injection, schedule: Q01DX005 (ip), vehicle: Klucel + Tween-80 97 % of control | dose: 100.0 mg/kg/injection, schedule: Q01DX005 (ip), vehicle: Klucel + Tween-80 93 % of control | dose: 200.0 mg/kg/injection, schedule: Q01DX005 (ip), vehicle: Klucel + Tween-80 100 % of control

C=C1C(=O)O[C@H]2CCC[C@@]12C
inactive: [5] 103 % of control | [6] 106 % of control | [7] 113 % of control

ClCc1cnc[nH]1
inactive: [8] 116 % of control | [9] 111 % of control

CN(C)CCCN1CCC2(CCSCC2)C1
inactive: dose: 50.0 mg/kg/injection, schedule: Q01DX005 (ip), vehicle: saline 102 % of control | dose: 100.0 mg/kg/injection, schedule: Q01DX005 (ip), vehicle: saline 99 % of control | dose: 200.0 mg/kg/injection, schedule: Q01DX005 (ip), vehicle: saline 91 % of control

O=C(CBr)Nc1ncc([N+](=O)[O-])s1
inactive: [1] 102 % of control | [2] 104 % of control

CNC(=S)N/N=C(\c1ccccc1)c1ccccn1
inactive: [8] 100 % of control | dose: 50.0 mg/kg/injection, schedule: Q01DX009 (ip), vehicle: suspension in saline 100 % of control and 105 % of control | [9] 102 % of control | dose: 100.0 mg/kg/injection, schedule: Q01DX009 (ip), vehicle: suspension in saline 103 % of control and 90 % of control | dose: 200.0 mg/kg/injection, schedule: Q01DX009 (ip), vehicle: saline 100 % of control | dose: 200.0 mg/kg/injection, schedule: Q01DX009 (ip), vehicle: suspension in saline 96 % of control and 98 % of control | dose: 400.0 mg/kg/injection, schedule: Q01DX009 (ip), vehicle: saline 122 % of control | dose: 400.0 mg/kg/injection, schedule: Q01DX009 (ip), vehicle: suspension in saline 102 % of control and 97 % of control

Oc1nc2nc[nH]n2c1N=Nc1ccccc1
inactive: dose: 60.0 mg/kg/injection, schedule: Q01DX005 (ip), vehicle: Klucel (hydroxypropylcellulose) (HPC) 115 % of control | dose: 120.0 mg/kg/injection, schedule: Q01DX005 (ip), vehicle: Klucel (hydroxypropylcellulose) (HPC) 98 % of control | dose: 240.0 mg/kg/injection, schedule: Q01DX005 (ip), vehicle: Klucel (hydroxypropylcellulose) (HPC) 92 % of control

Cc1cc(Cl)c2ccccc2c1N
inactive: dose: 100.0 mg/kg/injection, schedule: Q04DX003 (ip), vehicle: saline with Tween-80 100 % of control | dose: 200.0 mg/kg/injection, schedule: Q01DX009 (ip), vehicle: other 105 % of control | dose: 200.0 mg/kg/injection, schedule: Q04DX003 (ip), vehicle: saline with Tween-80 95 % of control | dose: 400.0 mg/kg/injection, schedule: Q01DX009 (ip), vehicle: other 90 % of control | dose: 400.0 mg/kg/injection, schedule: Q04DX003 (ip), vehicle: saline with Tween-80 100 % of control
